Test results taken from paper PMC12203311, “Design, synthesis, in silico and in vitro evaluation of pyrrole–indole hybrids as dual tubulin and aromatase inhibitors with potent anticancer activities” (RSC Advances, 2025).

How the values were obtained:
Assay in all cases: NCI60 five-dose screen
[1] = system: EKVX; assay type: cell-based; conditions: Homo sapiens, NSC lung cancer
[2] = system: HCT-15; assay type: cell-based; conditions: Homo sapiens, HCT-15, colon cancer
[3] = system: RPMI-8226; assay type: cell-based; conditions: Homo sapiens, RPMI-8226, leukemia
[4] = system: SK-OV-3; assay type: cell-based; conditions: Homo sapiens, SK-OV-3, ovarian cancer
[5] = system: HOP-62; assay type: cell-based; conditions: Homo sapiens, HOP-62, NSC lung cancer
[6] = system: TK-10; assay type: cell-based; conditions: Homo sapiens, TK-10, renal cancer
[7] = system: U251; assay type: cell-based; conditions: Homo sapiens, U-251, U251, CNS cancer
[8] = system: COLO 205; assay type: cell-based, human; conditions: Homo sapiens
[9] = system: PC-3; assay type: cell-based; conditions: Homo sapiens, PC-3, prostate cancer
[10] = system: NCI-H460; assay type: cell-based; conditions: Homo sapiens, NCI-H460, NSC lung cancer
[11] = system: SF-295; assay type: cell-based; conditions: Homo sapiens, SF-295, CNS cancer
[12] = system: ACHN; assay type: cell-based; conditions: Homo sapiens, renal cancer
[13] = system: OVCAR-8; assay type: cell-based; conditions: Homo sapiens, OVCAR-8, ovarian cancer
[14] = system: MCF7; assay type: cell-based; conditions: Homo sapiens, MCF7, breast cancer
[15] = system: UACC-62; assay type: cell-based; conditions: Homo sapiens, UACC-62, melanoma
[16] = system: SN12C; assay type: cell-based; conditions: Homo sapiens, renal cancer
[17] = system: SNB-75; assay type: cell-based; conditions: Homo sapiens, SNB-75, CNS cancer
[18] = system: SK-MEL-2; assay type: cell-based; conditions: Homo sapiens, SK-MEL-2, melanoma
[19] = system: UACC-257; assay type: cell-based; conditions: Homo sapiens, UACC-257, melanoma
[20] = system: NCI-H522; assay type: cell-based; conditions: Homo sapiens, NCI-H522, NSC lung cancer
[21] = system: CAKI-1; assay type: cell-based; conditions: Homo sapiens, CAKI-1, renal cancer
[22] = system: MDA-MB-231/ATCC; assay type: cell-based; conditions: Homo sapiens, breast cancer
[23] = system: OVCAR-4; assay type: cell-based; conditions: Homo sapiens, OVCAR-4, ovarian cancer
[24] = system: K-562; assay type: cell-based; conditions: Homo sapiens, K562, K-562, leukemia
[25] = system: DU-145; assay type: cell-based; conditions: Homo sapiens, DU-145, prostate cancer
[26] = system: IGROV1; assay type: cell-based; conditions: Homo sapiens, IGROV-1; IGROV1, ovarian cancer
[27] = system: NCI-H23; assay type: cell-based; conditions: Homo sapiens, NCI-H23, NSC lung cancer
[28] = system: HL-60 (TB); assay type: cell-based; conditions: Homo sapiens, leukemia
[29] = system: A549/ATCC; assay type: cell-based; conditions: Homo sapiens, NSC lung cancer
[30] = system: SNB-19; assay type: cell-based; conditions: Homo sapiens, SNB-19, CNS cancer
[31] = system: SK-MEL-28; assay type: cell-based; conditions: Homo sapiens, SK-MEL-28, melanoma
[32] = system: LOX IMVI; assay type: cell-based; conditions: Homo sapiens, melanoma
[33] = system: SK-MEL-5; assay type: cell-based, human; conditions: Homo sapiens
[34] = system: OVCAR-3; assay type: cell-based; conditions: Homo sapiens, OVCAR-3, ovarian cancer
[35] = system: BT-549; assay type: cell-based; conditions: Homo sapiens, BT-549, breast cancer
[36] = system: NCI/ADR-RES; assay type: cell-based, human; conditions: Homo sapiens, ovarian cancer
[37] = read-out: LC50 (the source's name)

CCc1cc[nH]c1/C=N/NC(=O)c1[nH]c2ccc(Br)cc2c1-c1ccccc1 [Derivative 3u, (E)-5-Bromo-N′-((3-ethyl-1H-pyrrol-2-yl)methylene)-3-phenyl-1H-indole-2-carbohydrazide]
GI50 [1]: 2.79 µM | CC50 [1, 37]: 37.7 µM | GI50 [2]: 1.03 µM | CC50 [2, 37]: 38.8 µM | GI50 [3]: 2.04 µM | CC50 [3, 37]: 78.6 µM | GI50 [4]: 2.59 µM | CC50 [4, 37]: 42.4 µM | GI50 [5]: 3.77 µM | CC50 [5, 37]: 45.8 µM | GI50 [6]: 5.05 µM | CC50 [6, 37]: 41.6 µM | GI50 [7]: 2.15 µM | CC50 [7, 37]: 37.8 µM | CC50 ([8]; COLO 205, COLO 205, colon cancer, read-out: LC50 (the source's name)): 41.3 µM | GI50 ([8]; COLO 205, colon cancer): 2.96 µM | GI50 [9]: 3.09 µM | CC50 [9, 37]: 47.6 µM | GI50 [10]: 1.23 µM | CC50 [10, 37]: 36.7 µM | GI50 [11]: 2.29 µM | CC50 [11, 37]: 37.1 µM | GI50 [12]: 3.27 µM | CC50 [12, 37]: 36.7 µM | GI50 [13]: 3.02 µM | CC50 [13, 37]: 39.8 µM | GI50 [14]: 2.63 µM | CC50 [14, 37]: 37.5 µM | GI50 [15]: 2.48 µM | CC50 [15, 37]: 30.8 µM | GI50 [16]: 2.26 µM | CC50 [16, 37]: 34 µM | GI50 [17]: 4.94 µM | CC50 [17, 37]: 43.4 µM | GI50 [18]: 6.77 µM | CC50 [18, 37]: 45.8 µM | GI50 [19]: 3.78 µM | CC50 [19, 37]: 40.8 µM | GI50 [20]: 2.3 µM | CC50 [20, 37]: 34.1 µM | GI50 [21]: 6.04 µM | CC50 [21, 37]: 45.3 µM | GI50 [22]: 5.02 µM | CC50 [22, 37]: 44.7 µM | GI50 [23]: 3.33 µM | CC50 [23, 37]: 43.7 µM | GI50 [24]: 2.27 µM | CC50 [24, 37]: 56.2 µM | GI50 [25]: 4.3 µM | CC50 [25, 37]: 42.3 µM | GI50 [26]: 3.52 µM | LC50 (concentration causing 50% net cell kill) [26]: 44 µM | GI50 [27]: 2.66 µM | CC50 [27, 37]: 38.3 µM | GI50 [28]: 2.03 µM | CC50 [28, 37]: 24.3 µM | GI50 [29]: 2 µM | CC50 [29, 37]: 41.5 µM | GI50 [30]: 4.5 µM | CC50 [30, 37]: 42.2 µM | GI50 [31]: 3.46 µM | CC50 [31, 37]: 40.1 µM | GI50 [32]: 2.42 µM | CC50 [32, 37]: 32.3 µM | CC50 ([33]; SK-MEL-5, SK-MEL-5, melanoma, read-out: LC50 (the source's name)): 27.2 µM | GI50 ([33]; SK-MEL-5, melanoma): 2.54 µM | GI50 [34]: 3.2 µM | CC50 [34, 37]: 44 µM | GI50 [35]: 2.7 µM | CC50 [35, 37]: 34.2 µM | GI50 [36]: 2.68 µM | CC50 [36, 37]: 34.6 µM
